For 53 molecules, inhibition results are on record in patent USRE34918E, “Azaazulene compounds which are useful as antiallergic and antiinflammatory agents” (Kaken Pharmaceutical Co., Ltd., priority 1988, dated 1995).

Counter-ions that a name gives are not always drawn.

The assay concerns histamine release from rat mast cell. Put plainly: Inhibitory activity against histamine release from rat mast cell. It is filed as cell-based. Particulars: 10 μg/ml, read-out: Inhibitory rate against histamine release. As for the experimental part: An anti-dinitrophenylated-ovalbumin (anti DNP-OVA) rat antiserum having 800 of PCA titer in homologous passive cutaneous anaphylaxis reaction in rats for 48 hours was diluted double with physiological saline, and 1 ml of diluted antiserum was injected intraperitoneally into rats to be passively sensitized. On the next day, peritoneal exudation cell (hereinafter referred to as "PEC") was collected. The collected PEC was washed with a medium containing 0.1% BSA, and 1.5×10^5 of the PEC were added to each test tube. AFter incubation at 37° C. for 10 minutes, 50 μl of test compound solution in a same medium was added thereto. After 30 seconds, 50 μl of antigen solution (DVA-OVA 100 μg/ml) was further added thereto to give the total amount of 500 μl of the reaction mixture, and histamine release reaction was induced. After 10 minutes, 1 ml of physiological saline with cooled Tris buffered solution containing 1 mM EDTA were added thereto to stop the reaction. After centrifugation, the amount of histamine in supernatant was determined by fluorescence method according to the method of Shore et al [cf. J. Pharmacol. Exp. Ther., 127, 182 (1959)]. Inhibition rate against histamine release was calculated according to the following equation.
Inhibition rate against histamine release [formula] M: Amount of histamine in supernatant under addition of antigen and non-addition of test compound
S: Amount of histamine in supernatant under addition of antigen and test compound
B: Amount of histamine in supernatant under non-addition of antigen and test compound.
The test compound was used in a concentration of 10 μg/ml.

As for `O=c1c(-c2nnn[nH]2)c2cccccc-2n1Cc1ccc(F)cc1` [Example 8, 1-(4-Fluorobenzyl)-3-(5-tetrazolyl)-1-azaazulane-2-one], the inhibition at 10 µg/mL is 89.6%.
Regarding `O=c1c(-c2nnn[nH]2)c2cccccc-2n1Cc1ccc(Cl)cc1` [Example 11, 1-(4-Chlorobenzyl)-3-(5-tetrazolyl)-1-azaazulane-2-one], the inhibition at 10 µg/mL amounted to 85.8%.
To `CC(C)c1cccc2n(CCc3ccc(O)c(O)c3)c(=O)c(-c3nnn[nH]3)c-2c1` [Example 12, 1-(3,4-Dihydroxyphenylethyl)-5-iso-propyl-3-(5-tetrazolyl)-1-azaazulane-2-one] belongs 60%; to `O=c1[nH]c2cccccc-2c1-c1nnn[nH]1` [Example 14], 89.6%; to `Cn1c2cccccc-2c(-c2nnn[nH]2)c1=O` [Example 15], 96.1%.
For `CCCCCCn1c2cccccc-2c(-c2nnn[nH]2)c1=O` [Example 20], the inhibition at 10 µg/mL turned out to be 91.1%.
Regarding `CCCCCCCCCCCCCCCCCCn1c2cccccc-2c(-c2nnn[nH]2)c1=O` [Example 21], the inhibition at 10 µg/mL amounted to 10.1%.
To `C=CCn1c2cccccc-2c(-c2nnn[nH]2)c1=O` [Example 22] belongs 84.2%; to `CCOCCn1c2cccccc-2c(-c2nnn[nH]2)c1=O` [Example 23], 87.2%; to `N#CCCCn1c2cccccc-2c(-c2nnn[nH]2)c1=O` [Example 24], 86.3%.
To `O=c1c(-c2nnn[nH]2)c2cccccc-2n1CCC(c1ccccc1)c1ccccc1` [Example 25] belongs 4.6%; to `O=c1c(-c2nn[nH]n2)c2cccccc-2n1CCc1ccccc1` [Example 26], 94.1%.
As for `CC(C)c1cccc2c(-c3nn[nH]n3)c(=O)n(CCc3ccccc3)c-2c1` [Example 27], the figure is 89.6%; as for `O=c1c(-c2nn[nH]n2)c2cccccc-2n1CCCc1ccccc1` [Example 28], 92.6%.
In the case of `O=c1c(-c2nn[nH]n2)c2cccccc-2n1CCCCc1ccccc1` [Example 31], the inhibition at 10 µg/mL is 70%.
As to `O=c1c(-c2nn[nH]n2)c2cccccc-2n1CCCCCc1ccccc1` [Example 32], the inhibition at 10 µg/mL was determined as 1.5%.
Consider `O=c1c(-c2nn[nH]n2)c2cccccc-2n1Cc1cccc(F)c1` [Example 33], for which the inhibition at 10 µg/mL is 67.2%.
For the molecule `O=c1c(-c2nn[nH]n2)c2cccccc-2n1Cc1ccccc1F` [Example 34], the inhibition at 10 µg/mL was 87.3%.
As for `N#Cc1ccc(Cn2c3cccccc-3c(-c3nn[nH]n3)c2=O)cc1` [Example 36], the inhibition at 10 µg/mL was found to be 43.2%.
As for `CCOC(=O)c1ccc(Cn2c3cccccc-3c(-c3nn[nH]n3)c2=O)cc1` [Example 37], the figure is 64.8%.
To `COc1ccc(Cn2c3cccccc-3c(-c3nn[nH]n3)c2=O)cc1` [Example 39] belongs 93%; to `O=c1c(-c2nn[nH]n2)c2cccccc-2n1Cc1ccc(O)cc1` [Example 40], 93.5%; to `O=C(Cn1c2cccccc-2c(-c2nn[nH]n2)c1=O)c1ccc(Cl)cc1` [Example 41], 32.3%.
As for `O=c1c(-c2nn[nH]n2)c2cccccc-2n1CC=Cc1ccccc1` [Example 42], the figure is 78.2%; as for `O=c1c(-c2nn[nH]n2)c2cccccc-2n1Cc1ccc(Cl)cc1Cl` [Example 45], 19.3%.
Consider `Cc1cc(C)c(Cn2c3cccccc-3c(-c3nn[nH]n3)c2=O)c(C)c1` [Example 47], for which the inhibition at 10 µg/mL is 12.6%.
To `CCCc1c(OCCCn2c3cccc(C(C)C)cc-3c(-c3nn[nH]n3)c2=O)ccc(C(C)=O)c1O` [Example 50] belongs 59.8%; to `CC(C)n1c2cccccc-2c(-c2nn[nH]n2)c1=O` [Example 52], 81.2%; to `CC(C)c1cccc2n(Cc3ccc4ccccc4n3)c(=O)c(-c3nn[nH]n3)c-2c1` [Example 53], 56.3%.
To `O=c1c(-c2nn[nH]n2)c2cccccc-2n1CCCCl` [Example 54] belongs 55.5%; to `CC(C)c1cccc2n(Cc3cccs3)c(=O)c(-c3nn[nH]n3)c-2c1` [Example 55], 65.8%; to `CC(C)c1cccc2n(Cc3ccc(Cl)cc3)c(=O)c(-c3nn[nH]n3)c-2c1` [Example 56], 88%.
Consider `CC(C)c1cccc2c(-c3nn[nH]n3)c(=O)n(Cc3ccc(Cl)cc3)c-2c1` [Example 57], for which the inhibition at 10 µg/mL is 89%.
For the molecule `N#Cc1c2cccccc-2nc1NCC(c1ccccc1)c1ccccc1` [Example 58, 3-Cyano-2-(2,2-diphenylethylamino)-1-azaazulene], the inhibition at 10 µg/mL worked out at 16.1%.
Turning to `N#Cc1c2cccccc-2nc1NCCC(c1ccccc1)c1ccccc1` [Example 59, 3-Cyano-2-(3,3-diphenylpropylamino)-1-azaazulene], the inhibition at 10 µg/mL was determined as 14%.
As for `CC(C)c1cccc2c(C#N)c(N=[N+]=[N-])nc-2c1` [Example 61, 2-Azido-3-cyano-7-isopropyl-1-azaazulene], the figure is 3.8%; as for `CC(C)c1cccc2nc(NCC(=O)O)c(C#N)c-2c1` [Example 63, Sodium salt of 2-carboxymethylamino-3-cyano-5-isopropyl-1-azaazulene], 85.3%; as for `COc1ccccc1N1CCN(c2nc3cccccc-3c2C#N)CC1` [Example 64, 3-Cyano-2-(4-(2-methoxyphenyl)piperazinyl)-1-azaazulene], -12.2%.
To `N#Cc1c2cccccc-2nc1NC(c1ccccc1)c1ccccc1` [Example 65] belongs 17.5%.
As for `CCOC(=O)c1ccc(Nc2nc3cccccc-3c2C#N)cc1` [Example 66], the figure is 20.5%; as for `N#Cc1c2cccccc-2nc1Nc1ccc(C(=O)O)cc1` [Example 67], 57%.
`COC(=O)c1ccccc1Nc1nc2cccccc-2c1C#N` [Example 68]: the inhibition at 10 µg/mL turned out to be 8.9%.
To `N#Cc1c2cccccc-2nc1N1CCN(C(c2ccccc2)c2ccccc2)CC1` [Example 69] belongs 33.2%; to `CCOC(=O)C(Cc1ccccc1)Nc1nc2cccccc-2c1C#N` (centres unmarked) [Example 70], 4.2%.
To `N#Cc1c2cccccc-2nc1NC(Cc1ccccc1)C(=O)O` (centres unmarked) [Example 71] belongs 8.1%; to `N#Cc1c2cccccc-2nc1NC(CO)C(=O)O` (centres unmarked) [Example 72], 22.5%; to `CC(Nc1nc2cccccc-2c1C#N)C(=O)O` (centres unmarked) [Example 73], 60.8%.
To `N#Cc1c2cccccc-2nc1N` [Example 74] belongs 64.8%; to `N#Cc1c2cccccc-2nc1NCCN1CCCC1` [Example 75], -9.6%; to `CC(C)c1cccc2nc(N=[N+]=[N-])c(C#N)c-2c1` [Example 76], 70.5%.
On to `COC(=O)C1CCCN1c1nc2cccccc-2c1C#N` (centres unmarked) [Example 77], for which the inhibition at 10 µg/mL worked out at 35.7%.
For the molecule `N#Cc1c2cccccc-2nc1N1CCCC1C(=O)O` (centres unmarked) [Example 78], the inhibition at 10 µg/mL turned out to be 50.5%.
As for `CC(C)c1cccc2c(C#N)c(NCC(=O)O)nc-2c1` [Example 79], the figure is 85.8%.
